Experiment in all cases: relative viability (nuclei count vs DMSO), 5 days (fraction); higher = more cells survive
Compound in assay [1]: CC1=CC=C(C=C1)C(=O)CN2C3=C(CCCC3)SC2=N [Pifithrin_alpha] + N=C(N)NC(=N)NCCc1ccccc1 [Phenformin] (partner 250 µM)
A digest of the protocol:
(§1)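 Relative viability was taken as the ratio of nuclei in treated wells to nuclei in vehicle wells. Lung cancer cell lines in 1536-well plates received compounds by pin tool one day after seeding, either one drug alone or a fixed anchor-drug dose plus five library-drug doses (not always all listed) in √10 steps. Nuclei were counted on 4× images after 5 days of treatment, and values are medians of duplicate plates.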

Compound in assay [2]: CNC(=O)c1ccccc1Sc1ccc2c(/C=C/c3ccccn3)n[nH]c2c1 [Axitinib] + C[C@@H](Oc1cc(-c2cnn(C3CCNCC3)c2)cnc1N)c1c(Cl)ccc(F)c1Cl [Crizotinib] (partner 1 µM)
A digest of the protocol: as §1

Compound in assay [3]: Nc1nc(Nc2ccc3c(c2)CC[C@@H](N2CCCC2)CC3)nn1-c1cc2c(nn1)-c1ccccc1CCC2 [Bemcentinib] + CS(=O)(=O)CCNCc1ccc(-c2ccc3ncnc(Nc4ccc(OCc5cccc(F)c5)c(Cl)c4)c3c2)o1 [Lapatinib] (partner 2 µM)
The method, boiled down:
as §1

Compound in assay [4]: CNC(=O)c1ccccc1Sc1ccc2c(/C=C/c3ccccn3)n[nH]c2c1 [Axitinib] + CCNC(=O)c1noc(-c2cc(C(C)C)c(O)cc2O)c1-c1ccc(CN2CCOCC2)cc1 [Luminespib] (partner 0.01 µM)
The method, boiled down: as §1

In the case of HCC-78, the relative viability turned out to be 0.433 in assay [1] (first compound 1 µM); 0.727 in assay [1] (first compound 3.162 µM); 0.664 in assay [1] (first compound 10 µM); 0.645 in assay [1] (first compound 31.62 µM); 0.69 in assay [1] (first compound 100 µM); 0.345 in assay [2] (first compound 0.005 µM). In addition, the relative viability in assay [2] (first compound 0.01581 µM) worked out at 0.35; in assay [2] (first compound 0.05 µM) it was 0.301; in assay [2] (first compound 0.1581 µM) it was 0.338; in assay [2] (first compound 0.5 µM), 0.375; in assay [3] (first compound 0.04 µM), 0.113; in assay [3] (first compound 0.1265 µM) it was 0.443. In addition, the relative viability was 0.693 in assay [3] (first compound 0.4 µM), 0.281 in assay [3] (first compound 1.265 µM) and 0.0037 in assay [3] (first compound 4 µM).

For the cell line HCC-366, the relative viability in assay [1] (first compound 1 µM) was found to be 0.662; in assay [1] (first compound 3.162 µM) it was 0.658; in assay [1] (first compound 10 µM), 0.618; in assay [1] (first compound 100 µM), 0.533; in assay [2] (first compound 0.005 µM), 0.628; in assay [2] (first compound 0.01581 µM) it was 0.657. Further, the relative viability turned out to be 0.603 in assay [2] (first compound 0.05 µM); 0.487 in assay [2] (first compound 0.1581 µM); 0.669 in assay [2] (first compound 0.5 µM); 0.994 in assay [3] (first compound 0.04 µM); 1.16 in assay [3] (first compound 0.1265 µM); 1.51 in assay [3] (first compound 0.4 µM). The figures for the relative viability in assay [3] (first compound 1.265 µM) and in assay [3] (first compound 4 µM) were 1.06 and 1.03, respectively.

As to HCC-827, the relative viability in assay [1] (first compound 1 µM) amounted to 0.438; in assay [1] (first compound 3.162 µM) it was 0.432; in assay [1] (first compound 10 µM), 0.414; in assay [1] (first compound 31.62 µM), 0.409; in assay [1] (first compound 100 µM), 0.395; in assay [4] (first compound 0.005 µM), 0.599. Moreover, the relative viability is 0.514 in assay [4] (first compound 0.01581 µM); 0.325 in assay [4] (first compound 0.05 µM); 0.728 in assay [4] (first compound 0.1581 µM); 0.459 in assay [4] (first compound 0.5 µM); 0.882 in assay [2] (first compound 0.005 µM); 0.905 in assay [2] (first compound 0.01581 µM). For the same cell line, the relative viability in assay [2] (first compound 0.05 µM) is 0.914; in assay [2] (first compound 0.1581 µM), 0.886; in assay [2] (first compound 0.5 µM), 0.943; in assay [3] (first compound 0.04 µM), 0.179; in assay [3] (first compound 0.1265 µM) it was 0.206; in assay [3] (first compound 0.4 µM), 0.216. In addition, the relative viability in assay [3] (first compound 1.265 µM) stood at 0.226; in assay [3] (first compound 4 µM), 0.194.

For the cell line HOP-62, the relative viability is 0.601 in assay [1] (first compound 1 µM); 0.903 in assay [1] (first compound 3.162 µM); 0.749 in assay [1] (first compound 10 µM); 0.59 in assay [1] (first compound 31.62 µM); 0.81 in assay [1] (first compound 100 µM); 0.934 in assay [4] (first compound 0.005 µM). The relative viability in assay [4] (first compound 0.01581 µM) worked out at 0.798; in assay [4] (first compound 0.05 µM), 0.908; in assay [4] (first compound 0.1581 µM) it was 0.885; in assay [4] (first compound 0.5 µM), 0.85; in assay [2] (first compound 0.005 µM), 0.941; in assay [2] (first compound 0.01581 µM), 1.1. Besides, the relative viability in assay [2] (first compound 0.05 µM) came to 0.93; in assay [2] (first compound 0.1581 µM) it was 0.981; in assay [2] (first compound 0.5 µM), 0.929; in assay [3] (first compound 0.04 µM), 1.17; in assay [3] (first compound 0.1265 µM) it was 0.977; in assay [3] (first compound 1.265 µM), 1.05. Also, the relative viability in assay [3] (first compound 4 µM) was found to be 0.959.

For the cell line IA-LM, the relative viability in assay [2] (first compound 0.005 µM) is 0.95; in assay [2] (first compound 0.01581 µM) it was 0.737; in assay [2] (first compound 0.05 µM), 1.05; in assay [2] (first compound 0.1581 µM), 1.04; in assay [2] (first compound 0.5 µM), 0.982; in assay [3] (first compound 0.04 µM), 0.661. Also, the relative viability in assay [3] (first compound 0.1265 µM) was 0.814; in assay [3] (first compound 0.4 µM), 1.13; in assay [3] (first compound 1.265 µM), 0.832; in assay [3] (first compound 4 µM) it was 0.775.

Take LC-2-ad: the relative viability in assay [1] (first compound 3.162 µM) was determined as 0.601; in assay [1] (first compound 10 µM), 0.646; in assay [1] (first compound 100 µM) it was 0.588; in assay [4] (first compound 0.005 µM), 1.01; in assay [4] (first compound 0.01581 µM) it was 1.13; in assay [4] (first compound 0.05 µM), 1.04. For the same cell line, the relative viability in assay [4] (first compound 0.1581 µM) amounted to 0.897; in assay [4] (first compound 0.5 µM) it was 0.956; in assay [2] (first compound 0.005 µM), 0.404; in assay [2] (first compound 0.01581 µM) it was 0.483; in assay [2] (first compound 0.05 µM) it was 0.496; in assay [2] (first compound 0.1581 µM), 0.424. The relative viability in assay [2] (first compound 0.5 µM) was 0.597; in assay [3] (first compound 0.04 µM), 0.921; in assay [3] (first compound 0.1265 µM), 1.09; in assay [3] (first compound 0.4 µM), 0.979; in assay [3] (first compound 1.265 µM), 0.943; in assay [3] (first compound 4 µM), 0.995.

As for LCLC-97TM1, the relative viability in assay [1] (first compound 1 µM) was 0.46; in assay [1] (first compound 3.162 µM), 0.479; in assay [1] (first compound 10 µM) it was 0.459; in assay [1] (first compound 31.62 µM), 0.435; in assay [1] (first compound 100 µM), 0.475; in assay [4] (first compound 0.005 µM) it was 0.671. The relative viability in assay [4] (first compound 0.01581 µM) came to 0.826; in assay [4] (first compound 0.05 µM), 0.663; in assay [4] (first compound 0.1581 µM), 0.672; in assay [4] (first compound 0.5 µM), 0.722; in assay [2] (first compound 0.005 µM), 0.433; in assay [2] (first compound 0.01581 µM) it was 0.524. The relative viability in assay [2] (first compound 0.05 µM) worked out at 0.265; in assay [2] (first compound 0.1581 µM), 0.377; in assay [2] (first compound 0.5 µM) it was 0.314; in assay [3] (first compound 0.04 µM), 0.777; in assay [3] (first compound 0.1265 µM), 1.11; in assay [3] (first compound 1.265 µM), 1.12. The relative viability in assay [3] (first compound 4 µM) turned out to be 0.941.

Regarding LCLC-103H, the relative viability in assay [1] (first compound 1 µM) is 0.336; in assay [1] (first compound 3.162 µM) it was 0.313; in assay [1] (first compound 10 µM), 0.373; in assay [1] (first compound 31.62 µM) it was 0.355; in assay [1] (first compound 100 µM), 0.375; in assay [4] (first compound 0.005 µM), 0.988. Moreover, the relative viability in assay [4] (first compound 0.01581 µM) came out at 0.917; in assay [4] (first compound 0.05 µM), 0.978; in assay [4] (first compound 0.1581 µM) it was 0.924; in assay [4] (first compound 0.5 µM), 0.994; in assay [2] (first compound 0.005 µM), 1.11; in assay [2] (first compound 0.01581 µM), 1.13. The relative viability in assay [2] (first compound 0.05 µM) turned out to be 1; in assay [2] (first compound 0.1581 µM), 1.1; in assay [2] (first compound 0.5 µM), 1.06.

For the cell line LK-2, the relative viability came to 0.352 in assay [1] (first compound 1 µM); 0.571 in assay [1] (first compound 3.162 µM); 0.563 in assay [1] (first compound 10 µM); 0.466 in assay [1] (first compound 100 µM); 0.185 in assay [4] (first compound 0.005 µM); 0.146 in assay [4] (first compound 0.01581 µM). For the same cell line, the relative viability was found to be 0.19 in assay [4] (first compound 0.05 µM); 0.185 in assay [4] (first compound 0.1581 µM); 0.18 in assay [4] (first compound 0.5 µM); 0.235 in assay [2] (first compound 0.005 µM); 0.264 in assay [2] (first compound 0.01581 µM); 0.252 in assay [2] (first compound 0.05 µM). Further, the relative viability in assay [2] (first compound 0.1581 µM) stood at 0.219; in assay [2] (first compound 0.5 µM), 0.216; in assay [3] (first compound 0.04 µM) it was 0.869; in assay [3] (first compound 0.1265 µM), 0.908; in assay [3] (first compound 0.4 µM), 1.07; in assay [3] (first compound 1.265 µM), 0.838. Besides, the relative viability in assay [3] (first compound 4 µM) came to 0.891.

The record behind these values is the supplement of paper PMC10307832.
